Source: patent EP0293900B1, “Phenolic thioethers, sulfoxides, and disulfides as inhibitors of 5-lipoxygenase” (G.D. Searle & Co., priority 1987, dated 1988)

biological target: T1, 5-lipoxygenase (Rattus norvegicus, UniProt P12527); assay: Inhibition of 5-lipoxygenase, in vitro (5-HETE synthesis from [1-14C]-arachidonic acid, RBL-1 supernatant); format: biochemical; settings: 100,000 x g supernatant of Rat Basophilic Leukemia Cell Homogenate (RBL-1); active = 30% or more inhibition of 5-HETE synthesis; initial screening 1 x 10⁻⁴M
T1 construct: The 100,000 x g supernatant fraction of Rat Basophilic Leukemia Cell Homogenate (RBL-1) serves as a 5-lipoxygenase enzyme source; endogenous in cells; host or cells: RBL-1 (rat basophilic leukemia) cells, 100,000 x g supernatant of the homogenate
T1 sequence (P12527 1-673): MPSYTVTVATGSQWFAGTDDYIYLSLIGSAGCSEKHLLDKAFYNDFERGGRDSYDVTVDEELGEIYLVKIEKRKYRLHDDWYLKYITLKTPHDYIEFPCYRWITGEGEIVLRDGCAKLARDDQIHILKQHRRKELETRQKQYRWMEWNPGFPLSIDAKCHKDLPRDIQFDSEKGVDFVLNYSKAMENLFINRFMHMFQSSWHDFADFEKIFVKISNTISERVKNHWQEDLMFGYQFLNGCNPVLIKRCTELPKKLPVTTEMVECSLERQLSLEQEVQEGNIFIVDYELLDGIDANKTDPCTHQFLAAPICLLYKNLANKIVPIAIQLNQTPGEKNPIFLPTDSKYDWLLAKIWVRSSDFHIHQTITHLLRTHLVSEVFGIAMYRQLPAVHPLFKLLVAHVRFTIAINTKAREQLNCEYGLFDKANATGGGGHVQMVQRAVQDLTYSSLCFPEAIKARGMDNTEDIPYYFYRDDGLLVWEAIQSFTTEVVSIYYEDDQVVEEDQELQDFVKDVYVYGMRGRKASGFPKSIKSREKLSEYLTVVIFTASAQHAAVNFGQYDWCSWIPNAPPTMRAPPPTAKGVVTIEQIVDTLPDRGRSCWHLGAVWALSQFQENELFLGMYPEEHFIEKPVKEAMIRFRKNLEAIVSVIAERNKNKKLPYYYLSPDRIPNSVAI
Procedure: The compounds of the invention are evaluated with respect to 5-lipoxygenase inhibition according to the following assay procedure.
Inhibition of 5-lipoxygenase, in vitro: anti-inflammatory, anti-allergy activities.
The 100,000 x g supernatant fraction of Rat Basophilic Leukemia Cell Homogenate (RBL-1) serves as a 5-lipoxygenase enzyme source. The enzyme is incubated with [1-¹⁴C)-arachidonic acid and Ca⁺⁺ in the presence and absence of test compound. The product of 5-lipoxygenase, 5-hydroxyeicosatetraenoic acid (5-HETE), is separated by thin-layer chromatography and measured by radioactivity. A compound inhibiting 5-HETE synthesis by 30% or more is considered active at that concentration. Initial screening doses are 1 x 10⁻⁴M.

Row | 5-Lipoxygenase Inhibition, in vitro. IC₅₀ | Compound
1 | Inactive | COC(=O)CCS(=O)(=O)c1cc(C(C)(C)C)c(O)c(C(C)(C)C)c1 [Example 11, Methyl 3-[[3,5-bis(1,1 dimethylethyl)-4-hydroxyphenyl]sulfonyl]propanoate]

same assay, conditions: 100,000 x g supernatant of Rat Basophilic Leukemia Cell Homogenate (RBL-1); active = 30% or more inhibition of 5-HETE synthesis; initial screening 1 x 10⁻⁴M; read-out: 5-Lipoxygenase Inhibition, in vitro. IC₅₀

Row | Compound | IC50
2 | CC(C)(C)c1cc(SCCCC(=O)O)cc(C(C)(C)C)c1O [Example 3, 4-[[3,5-bis(1,1-dimethylethyl)-4-hydroxyphenyl]thio] butanoic acid] | 1000 nM
3 | CC(C)(C)c1cc(SCCCCC(=O)O)cc(C(C)(C)C)c1O [Example 4, 5-[[3,5-bis(1,1-dimethylethyl)-4-hydroxyphenyl]thio]pentanoic acid] | 1100 nM
4 | CCOC(=O)C(C)Sc1cc(C(C)(C)C)c(O)c(C(C)(C)C)c1 (centres unmarked) [Example 5, Ethyl 2-[[3,5-bis(1,1-dimethylethyl)-4-hydroxyphenyl]thio]propanoate] | 390 nM
5 | CCCC(Sc1cc(C(C)(C)C)c(O)c(C(C)(C)C)c1)C(=O)OCC (centres unmarked) [Example 7, Ethyl 2-[[3,5-bis(1,1-dimethylethyl)-4-hydroxyphenyl]thio]pentanoate] | 1300 nM
6 | CCCC(Sc1cc(C(C)(C)C)c(O)c(C(C)(C)C)c1)C(=O)O (centres unmarked) [Example 8] | 6600 nM
7 | COC(=O)CCSc1cc(C(C)(C)C)c(O)c(C(C)(C)C)c1 [Example 9, Methyl 3-[[3,5-bis(1,1-dimethylethyl)-4-hydroxyphenol]thio]propanoate] | 380 nM
8 | COC(=O)CC[S+]([O-])c1cc(C(C)(C)C)c(O)c(C(C)(C)C)c1 (centres unmarked) [Example 10, Methyl 3-[[3,5-bis(1,1-dimethylethyl)-4-hydroxyphenyl]sulfinyl]propanoate] | 16500 nM

Second part, the molecule after the results:

Row | IC50 | Compound
9 | 3400 nM | CC(C)(C)c1cc(SCCC(=O)O)cc(C(C)(C)C)c1O [Example 12, 3-[[3,5-bis(1,1-dimethylethyl)-4-hydroxyphenyl]thio]propanic acid]
10 | 260 nM | CCOC(=O)C=CCCSc1cc(C(C)(C)C)c(O)c(C(C)(C)C)c1 [Example 13, Ethyl 5-[[3,5-bis(1,1-dimethylethyl)-4-hydroxyphenyl]thio]-2-pentenoate]
11 | 400 nM | COC(=O)CSSc1cc(C(C)(C)C)c(O)c(C(C)(C)C)c1 [Example 14, Methyl [[3,5-bis(1,1-dimethylethyl)-4-hydroxyphenyl]dithio]acetate]
